US11584737B2, “Heterocyclic compound” (TAKEDA PHARMACEUTICAL COMPANY LIMITED, priority 2018, dated 2023)

Target: CDK12/CycK complex (Homo sapiens, UniProt Q9NYV4)
Test: Measurement of CDK12 inhibitory activity by binding assay (TR-FRET, 66 nM BODIPY-FL-labeled AT-7519)
Settings: inhibitory rate against CDK12 at 1 μM test compound, 66 nM BODIPY-FL-labeled AT-7519, 2 nM CDK12/CycK
Description: Experimental Example 1: CDK12 Binding Assay
(3) Measurement of CDK12 Inhibitory Activity by Binding Assay
His-tagged CDK12/CycK complex was added to a binding assay buffer supplemented with BODIPY-FL labeled AT-7519, terbium-labeled streptavidin and biotin-labeled anti-histidine antibody, and the mixture was stood for not less than 60 min at room temperature. This solution was added to an assay plate containing a test compound dispensed therein, and the mixture was left standing for 120 min at room temperature. The final concentration of CDK12/CycK complex, BODIPY-FL-labeled AT-7519, terbium-labeled streptavidin and biotin-labeled anti-histidine antibody was set to 2 nM, 66 nM, 0.2 nM, and 0.4 nM, respectively. The fluorescence intensity derived from terbium and BODIPY-FL was measured using Envision. The signal value of each well was determined using the TR-FRET ratio calculated by the following formula. TR-FRET ratio=(fluorescence value of BODIPY-FL)÷(fluorescence value of terbium)
The inhibitory rate (%) of the test compound against CDK12 was calculated by the following formula. Inhibitory rate (%)=(1−(TR-FRET ratio of test compound−blank)÷(control−blank))×100
The TR-FRET ratio of the CDK12 enzyme reaction mixture under compound non-addition conditions is indicated as control, and the TR-FRET ratio under 3 μM AT-7519 addition conditions is indicated as blank.
The inhibitory rate of the test compound against CDK12 at […] is shown below.

Sequence of CDK12/CycK complex (Q9NYV4 whole entry, species assumed): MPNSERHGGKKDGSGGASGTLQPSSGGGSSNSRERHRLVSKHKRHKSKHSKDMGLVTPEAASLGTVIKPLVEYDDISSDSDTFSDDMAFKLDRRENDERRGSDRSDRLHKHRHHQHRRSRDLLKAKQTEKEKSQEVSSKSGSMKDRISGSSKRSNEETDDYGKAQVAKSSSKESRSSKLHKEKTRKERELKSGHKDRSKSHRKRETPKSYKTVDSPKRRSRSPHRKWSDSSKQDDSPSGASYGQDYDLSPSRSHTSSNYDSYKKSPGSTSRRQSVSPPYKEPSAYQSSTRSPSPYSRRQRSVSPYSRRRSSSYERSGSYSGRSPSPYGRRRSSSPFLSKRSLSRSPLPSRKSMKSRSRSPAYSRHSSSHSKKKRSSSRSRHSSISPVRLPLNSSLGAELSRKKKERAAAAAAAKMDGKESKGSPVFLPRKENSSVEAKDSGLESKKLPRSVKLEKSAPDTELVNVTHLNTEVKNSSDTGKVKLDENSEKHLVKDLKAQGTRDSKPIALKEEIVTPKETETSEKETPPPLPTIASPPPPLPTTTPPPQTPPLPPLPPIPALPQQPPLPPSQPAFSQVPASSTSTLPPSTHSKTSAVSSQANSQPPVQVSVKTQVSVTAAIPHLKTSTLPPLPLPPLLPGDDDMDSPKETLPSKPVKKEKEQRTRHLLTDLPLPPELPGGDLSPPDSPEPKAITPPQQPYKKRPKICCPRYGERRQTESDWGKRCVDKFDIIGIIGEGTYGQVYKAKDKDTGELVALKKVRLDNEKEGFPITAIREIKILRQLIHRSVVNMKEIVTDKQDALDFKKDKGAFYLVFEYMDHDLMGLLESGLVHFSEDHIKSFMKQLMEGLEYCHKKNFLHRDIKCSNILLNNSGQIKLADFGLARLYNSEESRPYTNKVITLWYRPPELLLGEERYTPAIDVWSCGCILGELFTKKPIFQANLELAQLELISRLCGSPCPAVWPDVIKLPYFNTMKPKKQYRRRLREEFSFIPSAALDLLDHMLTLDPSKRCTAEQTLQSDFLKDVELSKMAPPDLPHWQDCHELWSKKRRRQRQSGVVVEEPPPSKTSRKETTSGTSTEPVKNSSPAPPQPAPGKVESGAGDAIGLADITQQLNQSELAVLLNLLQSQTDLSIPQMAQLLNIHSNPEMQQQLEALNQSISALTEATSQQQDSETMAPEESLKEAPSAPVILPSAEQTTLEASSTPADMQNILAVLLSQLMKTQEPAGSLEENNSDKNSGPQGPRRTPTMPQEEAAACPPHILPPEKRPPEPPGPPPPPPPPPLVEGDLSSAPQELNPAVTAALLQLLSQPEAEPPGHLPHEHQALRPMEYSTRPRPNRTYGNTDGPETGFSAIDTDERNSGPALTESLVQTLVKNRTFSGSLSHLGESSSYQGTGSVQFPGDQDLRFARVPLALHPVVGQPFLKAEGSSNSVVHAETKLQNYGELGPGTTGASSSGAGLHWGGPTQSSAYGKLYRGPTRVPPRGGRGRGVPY
Sequence of CDK12/CycK complex (O75909 whole entry partner, species assumed): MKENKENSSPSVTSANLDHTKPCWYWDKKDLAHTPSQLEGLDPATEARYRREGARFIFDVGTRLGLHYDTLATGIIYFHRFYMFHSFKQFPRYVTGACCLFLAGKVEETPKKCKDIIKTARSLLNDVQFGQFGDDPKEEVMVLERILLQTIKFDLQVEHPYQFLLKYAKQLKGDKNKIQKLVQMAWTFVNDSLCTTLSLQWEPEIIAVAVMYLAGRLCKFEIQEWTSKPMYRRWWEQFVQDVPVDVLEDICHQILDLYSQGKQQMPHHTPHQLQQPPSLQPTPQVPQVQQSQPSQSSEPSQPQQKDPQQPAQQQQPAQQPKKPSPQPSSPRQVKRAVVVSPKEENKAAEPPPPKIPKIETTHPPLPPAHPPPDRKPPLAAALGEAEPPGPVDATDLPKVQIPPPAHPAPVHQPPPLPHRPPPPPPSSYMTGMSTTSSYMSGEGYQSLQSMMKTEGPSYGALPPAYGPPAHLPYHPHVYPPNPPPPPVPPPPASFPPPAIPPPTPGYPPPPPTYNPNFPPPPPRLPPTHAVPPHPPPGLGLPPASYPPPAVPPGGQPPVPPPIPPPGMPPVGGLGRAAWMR

inhibition at 1 µM [%]	Compound
101	Cn1cc(-c2ccc(N(C(=O)NCc3ccccc3)[C@H]3CC[C@H](Nc4ncc(C#N)c(NCCCO)n4)CC3)cc2)cn1 [Example 199, 3-benzyl-1-(trans-4-((5-cyano-4-((3-hydroxypropyl)amino)pyrimidin-2-yl)amino)cyclohexyl)-1-(4-(1-methyl-1H-pyrazol-4-yl)phenyl)urea]
104	Cn1cc(-c2ccc(N(C(=O)NCc3ccccc3)[C@H]3CC[C@H](Nc4ncc(C#N)c(N5CC(C)(O)C5)n4)CC3)nc2)cn1 [Example 482, 3-benzyl-1-(trans-4-((5-cyano-4-(3-hydroxy-3-methylazetidin-1-yl)pyrimidin-2-yl)amino)cyclohexyl)-1-(5-(1-methyl-1H-pyrazol-4-yl)pyridin-2-yl) urea]
106	Cn1cc(-c2ccc(N(C(=O)NCc3ccccc3)[C@H]3CC[C@H](Nc4ncc(C#N)c(NC5COC5)n4)CC3)nn2)cn1 [Example 532, 3-benzyl-1-(trans-4-((5-cyano-4-(oxetan-3-ylamino)pyrimidin-2-yl)amino)cyclohexyl)-1-(6-(1-methyl-1H-pyrazol-4-yl)pyridazin-3-yl)urea]
86	Cn1cc(-c2ccc(N(C(=O)NCc3ccccc3)[C@H]3CC[C@H](Nc4ncc(C#N)c(-c5ccc(C#N)s5)n4)CC3)nn2)cn1 [Example 538, 3-benzyl-1-(trans-4-((5-cyano-4-(5-cyano-2-thienyl)pyrimidin-2-yl)amino)cyclohexyl)-1-(6-(1-methyl-1H-pyrazol-4-yl)pyridazin-3-yl)urea]
100	Cc1cc(-c2nc(N[C@H]3CC[C@H](N(C(=O)NCc4ccccc4)c4ccc(-c5cnn(C)c5)nn4)CC3)ncc2C#N)[nH]n1 [Example 542, 3-benzyl-1-(trans-4-((5-cyano-4-(3-methyl-1H-pyrazol-5-yl)pyrimidin-2-yl)amino)cyclohexyl)-1-(6-(1-methyl-1H-pyrazol-4-yl)pyridazin-3-yl)urea]
98	Cc1cc(-c2nc(N[C@H]3CC[C@H](N(C(=O)NCc4ccccc4)c4cnc(-c5cnn(C)c5)cn4)CC3)ncc2C#N)[nH]n1 [Example 552, 3-benzyl-1-(trans-4-((5-cyano-4-(3-methyl-1H-pyrazol-5-yl)pyrimidin-2-yl)amino)cyclohexyl)-1-(5-(1-methyl-1H-pyrazol-4-yl)pyrazin-2-yl) urea]
103	COc1ncc(-c2ccc(N(C(=O)NCc3ccccc3)[C@H]3CC[C@H](Nc4ncc(C(F)(F)F)c(N5CC(C)(O)C5)n4)CC3)nc2)cn1 [Example 625, 3-benzyl-1-(trans-4-((4-(3-hydroxy-3-methylazetidin-1-yl)-5-(trifluoromethyl)pyrimidin-2-yl)amino)cyclohexyl)-1-(5-(2-methoxypyrimidin-5-yl)pyridin-2-yl)urea]
104	COc1ncc(-c2ccc(N(C(=O)NCc3ccccn3)[C@H]3CC[C@H](Nc4ncc(C(F)(F)F)c(N5CC(C)(O)C5)n4)CC3)nc2)cn1 [Example 630, 1-(trans-4-((4-(3-hydroxy-3-methylazetidin-1-yl)-5-(trifluoromethyl)pyrimidin-2-yl)amino)cyclohexyl)-1-(5-(2-methoxypyrimidin-5-yl)pyridin-2-yl)-3-(pyridin-2-ylmethyl)urea]

More lines, now with the values behind:

Compound	inhibition at 1 µM [%]
Cn1cc(-c2ccc(N(C(=O)NCc3ccccc3)[C@H]3CC[C@H](Nc4ncc(C#N)c(NC5COC5)n4)CC3)cc2)ccc1=O [Example 483, 3-benzyl-1-(trans-4-((5-cyano-4-(oxetan-3-ylamino)pyrimidin-2-yl)amino)cyclohexyl)-1-(4-(1-methyl-6-oxo-1,6-dihydropyridin-3-yl)phenyl)urea]	103
Cn1ccc(-c2ccc(N(C(=O)NCc3ccccc3)[C@H]3CC[C@H](Nc4ncc(C#N)c(-c5ccc(C#N)s5)n4)CC3)cn2)cc1=O [Example 492, 3-benzyl-1-(trans-4-((5-cyano-4-(5-cyano-2-thienyl)pyrimidin-2-yl)amino)cyclohexyl)-1-(1′-methyl-2′-oxo-1′,2′-dihydro-2,4′-bipyridin-5-yl)urea]	92
Cn1cc(-c2cnc(N(C(=O)NCc3ccccc3)[C@H]3CC[C@H](Nc4ncc(C#N)c(-c5ccc(C#N)s5)n4)CC3)cn2)cn1 [Example 495, 3-benzyl-1-(trans-4-((5-cyano-4-(5-cyano-2-thienyl)pyrimidin-2-yl)amino)cyclohexyl)-1-(5-(1-methyl-1H-pyrazol-4-yl)pyrazin-2-yl)urea]	81
COc1ncc(-c2ccc(N(C(=O)COc3ccccc3)[C@H]3CC[C@H](Nc4ncc(C#N)c(NC5COC5)n4)CC3)nc2)cn1 [Example 587, N-(trans-4-((5-cyano-4-(oxetan-3-ylamino)pyrimidin-2-yl)amino)cyclohexyl)-N-(5-(2-methoxypyrimidin-5-yl)pyridin-2-yl)-2-phenoxyacetamide]	102
COc1ncc(-c2ccc(N(C(=O)NCc3ccccc3)[C@H]3CC[C@H](Nc4ncc(C(F)(F)F)c(N5CCCC(O)CC5)n4)CC3)nc2)cn1 (stereo partly drawn) [Example 592, 3-benzyl-1-(trans-4-((4-(4-hydroxyazepan-1-yl)-5-(trifluoromethyl)pyrimidin-2-yl)amino)cyclohexyl)-1-(5-(2-methoxypyrimidin-5-yl)pyridin-2-yl)urea]	101
COc1ncc(-c2ccc(N(C(=O)NCc3ccccc3)[C@H]3CC[C@H](Nc4ncc(C#N)c(N5CCCC(O)CC5)n4)CC3)nc2)cn1 (stereo partly drawn) [Example 595, 3-benzyl-1-(trans-4-((5-cyano-4-(4-hydroxyazepan-1-yl)pyrimidin-2-yl)amino)cyclohexyl)-1-(5-(2-methoxypyrimidin-5-yl)pyridin-2-yl)urea]	104
COc1ncc(-c2ccc(N(C(=O)OCc3ccccc3)[C@H]3CC[C@H](Nc4ncc(C#N)c(N5CCCC(O)CC5)n4)CC3)nc2)cn1 (stereo partly drawn) [Example 599, benzyl (trans-4-((5-cyano-4-(4-hydroxyazepan-1-yl)pyrimidin-2-yl)amino)cyclohexyl) (5-(2-methoxypyrimidin-5-yl)pyridin-2-yl)carbamate]	102
COc1ncc(-c2cnc(N(C(=O)NCc3ccccc3)[C@H]3CC[C@H](Nc4ncc(C(F)(F)F)c(OC5COC5)n4)CC3)nc2)cn1 [Example 606, 3-benzyl-1-(2′-methoxy-5,5′-bipyrimidin-2-yl)-1-(trans-4-((4-(oxetan-3-yloxy)-5-(trifluoromethyl)pyrimidin-2-yl)amino)cyclohexyl)urea]	96
COc1ncc(-c2cnc(N(C(=O)OCc3ccccc3)[C@H]3CC[C@H](Nc4ncc(C#N)c(N5CC(C)(O)C5)n4)CC3)nc2)cn1 [Example 619, benzyl (trans-4-((5-cyano-4-(3-hydroxy-3-methylazetidin-1-yl)pyrimidin-2-yl)amino)cyclohexyl) (2′-methoxy-5,5′-bipyrimidin-2-yl)carbamate]	98
COc1ncc(-c2cnc(N(C(=O)NCc3ccccc3)[C@H]3CC[C@H](Nc4ncc(C#N)c(N5CC(C)(O)C5)n4)CC3)cn2)cn1 [Example 620, 3-benzyl-1-(trans-4-((5-cyano-4-(3-hydroxy-3-methylazetidin-1-yl)pyrimidin-2-yl)amino)cyclohexyl)-1-(5-(2-methoxypyrimidin-5-yl)pyrazin-2-yl)urea]	97
COc1ncc(-c2ccc(N(C(=O)COc3ccccc3)[C@H]3CC[C@H](Nc4ncc(C(F)(F)F)c(N5CC(C)(O)C5)n4)CC3)nc2)cn1 [Example 623, N-(trans-4-((4-(3-hydroxy-3-methylazetidin-1-yl)-5-(trifluoromethyl)pyrimidin-2-yl)amino)cyclohexyl)-N-(5-(2-methoxypyrimidin-5-yl)pyridin-2-yl)-2-phenoxyacetamide]	100
COc1ncc(-c2ccc(N(C(=O)NCc3ccccc3)[C@H]3CC[C@H](Nc4ncc(C#N)c(N5CC(C)(O)C5)n4)CC3)nc2)cn1 [Example 626, 3-benzyl-1-(trans-4-((5-cyano-4-(3-hydroxy-3-methylazetidin-1-yl)pyrimidin-2-yl)amino)cyclohexyl)-1-(5-(2-methoxypyrimidin-5-yl)pyridin-2-yl)urea]	105
COc1ncc(-c2ccc(N(C(=O)COc3ccccc3)[C@H]3CC[C@H](Nc4ncc(C(F)(F)F)c(OC5COC5)n4)CC3)nc2)cn1 [Example 627, N-(5-(2-methoxypyrimidin-5-yl)pyridin-2-yl)-N-(trans-4-((4-(oxetan-3-yloxy)-5-(trifluoromethyl)pyrimidin-2-yl)amino)cyclohexyl)-2-phenoxyacetamide]	98
COc1ncc(-c2ccc(N(C(=O)OCc3ccccn3)[C@H]3CC[C@H](Nc4ncc(C(F)(F)F)c(N5CC(C)(O)C5)n4)CC3)nc2)cn1 [Example 628, pyridin-2-ylmethyl (trans-4-((4-(3-hydroxy-3-methylazetidin-1-yl)-5-(trifluoromethyl)pyrimidin-2-yl)amino)cyclohexyl) (5-(2-methoxypyrimidin-5-yl)pyridin-2-yl)carbamate]	100
COc1ncc(-c2ccc(N(C(=O)OCc3ccccn3)[C@H]3CC[C@H](Nc4ncc(C(F)(F)F)c(OC5COC5)n4)CC3)nc2)cn1 [Example 629, pyridin-2-ylmethyl (5-(2-methoxypyrimidin-5-yl)pyridin-2-yl) (trans-4-((4-(oxetan-3-yloxy)-5-(trifluoromethyl)pyrimidin-2-yl)amino)cyclohexyl)carbamate]	100
